Laboratory results: US20230219939A1, “N-(1-CYANO-PYRROLIDIN-3-YL)-5-(3-(TRIFLUOROMETHYL)PHENYL)OXAZOLE-2-CARBOXAMIDE DERIVATIVES AND THE CORRESPONDING OXADIAZOLE DERIVATIVES AS USP30 INHIBITORS FOR THE TREATMENT OF MITOCHONDRIAL DYSFUNCTION” (MISSION THERAPEUTICS LIMITED, priority 2020, published 2023)
“And” between values parts separate entries of the source, which are not always exact repeats. Equal entries are not always repeated. Where two headings read alike, the source gives them in different places.

Tests used:
Cathepsin B = Cathepsin B (Homo sapiens, UniProt P07858); experiment: Cathepsin B IC50; assay type: biochemical
UCHL1 = target: T1, UCHL1 (Homo sapiens, UniProt P09936); experiment: UCHL1 DUB IC50; assay type: biochemical
T1 sequence (P09936 1-223): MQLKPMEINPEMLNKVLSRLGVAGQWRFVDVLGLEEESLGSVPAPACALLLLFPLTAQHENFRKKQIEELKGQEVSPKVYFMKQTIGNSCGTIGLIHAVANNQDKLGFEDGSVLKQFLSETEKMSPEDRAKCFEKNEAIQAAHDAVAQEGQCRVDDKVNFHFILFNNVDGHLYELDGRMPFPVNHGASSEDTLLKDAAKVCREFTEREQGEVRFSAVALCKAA

Cathepsins B, K, L, S, V = experiment: Cathepsin panel IC50 (summary over B, K, L, S, V); assay type: biochemical; details: for IC50: range over the five cathepsins
Cathepsin V = Cathepsin V (Homo sapiens, UniProt O60911); experiment: Cathepsin V IC50; assay type: biochemical
Sequence of Cathepsin V (O60911 114-334, species assumed): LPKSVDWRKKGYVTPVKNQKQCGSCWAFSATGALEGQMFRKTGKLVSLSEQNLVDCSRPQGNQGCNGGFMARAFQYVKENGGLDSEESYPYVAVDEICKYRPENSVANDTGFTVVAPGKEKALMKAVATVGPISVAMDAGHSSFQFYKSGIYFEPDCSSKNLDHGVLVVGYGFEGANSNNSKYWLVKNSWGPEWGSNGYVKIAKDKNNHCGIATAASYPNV

Cathepsin L = Cathepsin L (Homo sapiens, UniProt P07711); experiment: Cathepsin L IC50; assay type: biochemical
Sequence of Cathepsin L (P07711 114-333, species assumed): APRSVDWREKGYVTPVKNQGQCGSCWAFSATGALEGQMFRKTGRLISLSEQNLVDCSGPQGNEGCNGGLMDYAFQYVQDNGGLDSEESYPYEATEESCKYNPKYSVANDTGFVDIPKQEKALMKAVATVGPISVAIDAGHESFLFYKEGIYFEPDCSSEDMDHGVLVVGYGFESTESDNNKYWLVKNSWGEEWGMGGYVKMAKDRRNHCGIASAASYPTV

USP30 = target: T2, USP30 (Homo sapiens, UniProt Q70CQ3); experiment: USP30 biochemical IC50 assay (fluorescence polarisation)
T2 construct: purchased Boston Biochem E582
T2 sequence (Q70CQ3 57-517 limits assumed): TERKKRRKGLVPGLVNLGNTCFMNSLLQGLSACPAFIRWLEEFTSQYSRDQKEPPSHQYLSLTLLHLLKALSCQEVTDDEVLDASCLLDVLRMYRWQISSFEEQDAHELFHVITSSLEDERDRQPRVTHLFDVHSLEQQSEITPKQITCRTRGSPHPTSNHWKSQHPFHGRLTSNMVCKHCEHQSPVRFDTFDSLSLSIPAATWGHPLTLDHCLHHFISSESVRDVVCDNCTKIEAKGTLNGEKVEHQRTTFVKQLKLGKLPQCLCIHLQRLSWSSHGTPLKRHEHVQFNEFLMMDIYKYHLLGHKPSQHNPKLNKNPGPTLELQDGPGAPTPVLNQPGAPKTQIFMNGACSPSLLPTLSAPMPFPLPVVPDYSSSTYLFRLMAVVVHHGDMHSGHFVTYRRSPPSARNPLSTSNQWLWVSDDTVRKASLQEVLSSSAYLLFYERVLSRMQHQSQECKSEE
Procedure: Dilution plates were prepared at 21 times the final concentration (2100 μM for a final concentration of 100 μM) in 50% DMSO in a 96-well polypropylene V-bottom plate (Greiner #651201). A typical 8-point dilution series would be 100, 30, 10, 3, 1, 0.3, 0.1, 0.03 μM final. Reactions were performed in duplicate in black 384 well plates (small volume, Greiner 784076) in a final reaction volume of 21 μl. Either 1 μl of 50% DMSO or diluted compound was added to the plate. USP30 (Boston Biochem #E582) was diluted in reaction buffer (40 mM Tris, pH 7.5, 0.005% Tween 20, 0.5 mg/ml BSA, 5 mM beta-mercaptoethanol) to achieve a final assay concentration of 4 nM, and 10 μl of diluted USP30 was added to the compound. Enzyme and compound were incubated for 30 min at room temp. Reactions were initiated by the addition of 50 nM of TAMRA labelled peptide linked to ubiquitin via an iso-peptide bond as fluorescence polarisation substrate. Reactions were read immediately after addition of substrate and following a 2-hour incubation at room temperature. Readings were performed on a Pherastar Plus (BMG Labtech). λ Excitation 540 nm; λ Emission 590 nm.

[1] = tested on: USP2, USP6, USP10, USP16, USP21, USP22, USP25, USP28; experiment: DUB selectivity panel IC50; assay type: biochemical
Cathepsin S = Cathepsin S (Homo sapiens, UniProt P25774); experiment: Cathepsin S IC50; assay type: biochemical
Sequence of Cathepsin S (P25774 115-331, species assumed): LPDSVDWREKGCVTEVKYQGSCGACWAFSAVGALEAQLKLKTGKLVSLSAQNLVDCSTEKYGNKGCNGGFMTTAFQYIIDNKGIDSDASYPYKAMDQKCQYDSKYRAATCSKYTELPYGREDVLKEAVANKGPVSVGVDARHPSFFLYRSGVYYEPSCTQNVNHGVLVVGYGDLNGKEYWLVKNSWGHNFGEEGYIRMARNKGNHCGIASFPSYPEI

Cathepsin K = target: T3, Cathepsin K (Homo sapiens, UniProt P43235); experiment: Cathepsin K IC50; assay type: biochemical
T3 sequence (P43235 115-329): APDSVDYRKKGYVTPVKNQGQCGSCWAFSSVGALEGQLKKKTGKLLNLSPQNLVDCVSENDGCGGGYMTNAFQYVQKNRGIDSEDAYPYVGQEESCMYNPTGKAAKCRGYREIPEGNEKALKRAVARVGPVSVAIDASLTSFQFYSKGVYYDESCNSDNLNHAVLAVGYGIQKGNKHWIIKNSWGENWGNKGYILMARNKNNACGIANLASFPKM

Mouse plasma stability = assay type: in vitro ADME; details: mouse plasma; read-out: Stability Mouse plasma t1/2
mouse hepatocytes = experiment: Hepatocyte Cl mouse; assay type: in vitro ADME
Procedure: Hep Cl mouse: in vitro hepatocyte clearance in mouse cells.
Clu: in vitro clearance. Clu as defined here is the scaled clearance, in turn calculated from the intrinsic clearance. The intrinsic clearance is the predicted clearance due to hepatic metabolic reactions, determined from incubation of a compound in a hepatocyte preparation.

[2] = read-out: Cathepsin IC50 (μM) B, K, L, S, V
[3] = read-out: Cathepsin IC50 (μM) Cathepsin L
[4] = USP30 biochemical IC50 assay, read-out: USP30 IC50
[5] = range over the eight DUBs, read-out: DUB IC50 (μM) USP2, USP6, USP10, USP16, USP21, USP22, USP25, USP28
[6] = read-out: Cathepsin IC50 (μM) B, K, U, S, V
[7] = read-out: Cathepsin IC50 (μM) Cathepsin U

| IC50 (Cathepsin B) | IC50 (UCHL1) | IC50 (Cathepsin V) | IC50 (USP30; [4]) | IC50 (USP30; read-out: DUB IC50 (μM) USP30) | IC50 [1, 5] | Compound | also measured |
| --- | --- | --- | --- | --- | --- | --- | --- |
| > 300 µM | > 300 µM | 101 µM | 0.004 µM | 0.004 µM and 0.004 to 0.033 µM | 2.9 to 135 µM | COC[C@@H]1C[C@@H](NC(=O)c2ncc(-c3cc(C(F)(F)F)ccc3OC3CC3)o2)CN1C#N [Example 9, N-((3R,5S)-1-cyano-5-(methoxymethyl)pyrrolidin-3-yl)-5-(2-cyclopropoxy-5-(trifluoromethyl)phenyl)-oxazole-2-carboxamide] | IC50 (Cathepsins B, K, L, S, V; [2]): ≥ 9.9 µM; IC50 (Cathepsin L; [3]): 18.2 µM |
|  |  |  | 0.073 µM |  |  | C[C@@H]1C[C@@H](NC(=O)c2nnc(-c3cc(C(F)(F)F)ccc3OC3CC3)o2)CN1C#N [Example 6, N-((3R,5R)-1-Cyano-5-methylpyrrolidin-3-yl)-5-(2-cyclopropoxy-5-(trifluoromethyl)phenyl)-1,3,4-oxadiazole-2-carboxamide] |  |
|  | > 300 µM |  | 0.033 µM | 0.004 to 0.033 µM |  | C[C@@H]1C[C@@H](NC(=O)c2nnc(-c3cccc(C(F)(F)F)c3)o2)CN1C#N [Example 7, N-((3R,5R)-1-Cyano-5-methylpyrrolidin-3-yl)-5-(3-(trifluoromethyl)phenyl)-1,3,4-oxadiazole-2-carboxamide] |  |
|  |  |  |  |  |  | CC1CC(C(=O)Nc2ncc(-c3ccccc3)s2)CN1C#N (stereo not drawn) [Reference Example D, reference compound] | fold more potent against USP30 than UCHL1 (UCHL1): 1.5 fold |
|  |  |  | 0.041 µM |  |  | COC[C@@H]1C[C@@H](NC(=O)c2nnc(-c3cc(C(F)(F)F)ccc3OC)o2)CN1C#N [Example 10, N-((3R,5S)-1-Cyano-5-(methoxymethyl)pyrrolidin-3-yl)-5-(2-methoxy-5-(trifluoromethyl)phenyl)-1,3,4-oxadiazole-2-carboxamide] |  |
| > 300 µM | 149 µM | > 30 µM | 0.015 µM | 0.015 µM | > 300 µM | COC[C@H]1C[C@@H](NC(=O)c2ncc(-c3cccc(C(F)(F)F)c3)o2)CN1C#N [Example 12, N-((3R,5R)-1-Cyano-5-(methoxymethyl)pyrrolidin-3-yl)-5-(3-(trifluoromethyl)phenyl)oxazole-2-carboxamide] | DUB selectivity preference for USP30 v UCHL1 (UCHL1): 9933; IC50 (Cathepsin S): > 30 µM; Selectivity preference for USP30 v cathepsins (Cathepsins B, K, L, S, V): >2000; IC50 (Cathepsins B, K, L, S, V; [2]): > 30 µM; IC50 (Cathepsin L; [3]): > 30 µM; DUB selectivity preference for USP30 v 8 DUBs [1]: >20000; IC50 (Cathepsin K): > 30 µM |
| 4.6 µM | 0.15 µM | 2.5 µM | 0.3 µM | 0.3 µM | 3.8 to 59.7 µM | N#CN1CC[C@H](C(=O)Nc2cn(-c3cccc(C(F)(F)F)c3)cn2)C1 [Reference Example B, reference compound] | DUB selectivity preference for USP30 v UCHL1 (UCHL1): 0.5; fold more potent against USP30 than UCHL1 (UCHL1): 0.5 fold; half-life (Mouse plasma stability): 10.4 min; IC50 (Cathepsin S): 6.4 µM; Selectivity preference for USP30 v cathepsins (Cathepsins B, K, L, S, V): 3.0-21; IC50 (Cathepsins B, K, L, S, V; [6]): 0.91 to 6.4 µM; Hepatocyte Cl mouse Scaled Clu (mouse hepatocytes): >121 mL/min/kg; IC50 (Cathepsin L; [7]): 1.1 µM; DUB selectivity preference for USP30 v 7/8 DUBs ([1]; Ref. Ex. A 7 DUBs (exc. USP6), Ref. Ex. B 8 DUBs): 12.7-199; minimum fold more potent against USP30 than against each of the eight DUBs ([1]; USP2, USP6, USP10, USP16, USP21, USP22, USP25, USP28, 'A' not tested against USP6): 12.7 fold; IC50 (Cathepsin K): 0.91 µM; fold more potent against USP30 than against cathepsin K (Cathepsin K): 3 fold |
|  |  |  | 0.003 µM |  |  | CS(=O)(=O)C[C@@H]1C[C@@H](NC(=O)c2ncc(-c3cccc(C(F)(F)F)c3)o2)CN1C#N [Example 3, N-((3R,5S)-1-Cyano-5-((methylsulfonyl)methyl)pyrrolidin-3-yl)-5-(3-(trifluoromethyl)phenyl)-oxazole-2-carboxamide] |  |
|  | > 300 µM |  | 0.022 µM | 0.004 to 0.033 µM |  | COC[C@@H]1C[C@@H](NC(=O)c2nnc(-c3cc(C(F)(F)F)ccc3Cl)o2)CN1C#N [Example 11, 5-(2-Chloro-5-(trifluoromethyl)phenyl)-N-((3R,5S)-1-cyano-5-(methoxymethyl)pyrrolidin-3-yl)-1,3,4-oxadiazole-2-carboxamide] |  |
|  |  |  |  |  |  | N#CN1CC[C@H](C(=O)Nc2ncc(-c3ccccc3)s2)C1 [C, reference compound] | fold more potent against USP30 than UCHL1 (UCHL1): 0.8 fold |
| 116 µM | > 300 µM | > 30 µM | 0.038 µM | 0.038 µM and 0.004 to 0.033 µM | 4.6 to 78.9 µM | COC[C@@H]1C[C@@H](NC(=O)c2nnc(-c3cccc(C(F)(F)F)c3)o2)CN1C#N [Example 8, N-((3R,5S)-1-Cyano-5-(methoxymethyl)pyrrolidin-3-yl)-5-(3-(trifluoromethyl)phenyl)-1,3,4-oxadiazole-2-carboxamide] | IC50 (Cathepsin L; [3]): > 30 µM |
| 79 µM | 280 µM | 56 µM | 0.008 µM | 0.008 µM | 17.2 to 108 µM | C[C@@H]1C[C@@H](NC(=O)c2ncc(-c3cccc(C(F)(F)F)c3)o2)CN1C#N [Example 2, N-((3R,5R)-1-cyano-5-methylpyrrolidin-3-yl)-5-(3-(trifluoromethyl)phenyl)oxazole-2-carboxamide] | IC50 (Cathepsin L; [3]): 7.9 µM |
|  |  |  | 0.041 µM |  |  | COC[C@@H]1C[C@@H](NC(=O)c2nnc(-c3cc(C(F)(F)F)ccc3OC3CC3)o2)CN1C#N [Example 5, N-((3R,5S)-1-Cyano-5-(methoxymethyl)pyrrolidin-3-yl)-5-(2-cyclopropoxy-5-(trifluoromethyl)phenyl)-1,3,4-oxadiazole-2-carboxamide] |  |
|  |  |  | 0.004 µM |  |  | N#CN1C[C@H](NC(=O)c2ncc(-c3cccc(C(F)(F)F)c3)o2)C[C@H]1Cn1ccnn1 [Example 4, N-((3R,5S)-5-((1H-1,2,3-Triazol-1-yl)methyl)-1-cyanopyrrolidin-3-yl)-5-(3-(trifluoromethyl)phenyl) oxazole-2-carboxamide] |  |
| 0.85 µM |  | 7.2 µM | 0.12 µM | 0.12 µM |  | N#CN1CC[C@@H](NC(=O)c2cc(-c3ccc(C(F)(F)F)cc3)no2)C1 [Reference Example A, reference compound] | half-life (Mouse plasma stability): > 120 min; IC50 (Cathepsins B, K, L, S, V; [6]): ≥ 0.73 µM; Hepatocyte Cl mouse Scaled Clu (mouse hepatocytes): 118 mL/min/kg; IC50 (Cathepsin L; [7]): 2.1 µM; IC50 ([1]; range over seven DUBs, exc. USP6, read-out: DUB IC50 (μM) USP2, USP6, USP10, USP16, USP21, USP22, USP25, USP28 (exc. USP6)): 0.81 to 3 µM |
